Measured values from paper PMC4666032, “KPT-330, a potent and selective exportin-1 (XPO-1) inhibitor, shows antitumor effects modulating the expression of cyclin D1 and survivin in prostate cancer models” (BMC Cancer, 2015).

System: DU145 xenografts
Assay: DU145 xenograft in male nude mice
Assay type: in vivo
Settings: PO Mon/Wed/Fri, vs vehicle
Source text: Male CD1 nude mice (Charles River, Milan, Italy) were maintained under the guidelines established by the University of L’Aquila, Medical School and Science and Technology School Board Regulations. Experiments on animals have been approved by your local IRB in compliance with the Italian government regulation n.116 January 27, 1992 for the use of laboratory animals which is line with ARRIVE guidelines. All mice received subcutaneous flank injections of 1 x 10^6 PC3, DU145 or 22v1 cells. Tumor growth was measured bi-weekly with a Vernier caliper (length x width). Tumor weight was calculated according to the formula: TW (mg) = tumor volume (mm^3) = d2 x D/2, where d and D are the shortest and longest diameters, respectively. The effects of the treatments were examined as previously described. […]
Mice were treated by oral gavage with either vehicle control (Pluronic F-68/PVP-K29/32), KPT330 or KPT251. […] In vivo, combinational studies were evaluated by CalcuSyn (Biosoft). For the calculation of CI, the values of cell kill for a fixed tumor volume were considered (determined by the log cell kill (LCK)). LCK was determined as LCKZ (TKC)/(3.3KTd), where Td represents the mean control group doubling time required to reach a fixed tumor volume, expressed in days, whereas T and C are the same values as described above. […]

| Structure (SMILES) | tumor weight |
| --- | --- |
| O=C(/C=C\n1cnc(-c2cc(C(F)(F)F)cc(C(F)(F)F)c2)n1)NNc1cnccn1 [KPT-330] | reduce tumor weight in a dose-dependent manner |
| FC(F)(F)c1cc(-c2ncn(/C=C\c3nnco3)n2)cc(C(F)(F)F)c1 [KPT-251] | reduce tumor weight in a dose-dependent manner |
